Measurements reported in article PMC11444200, “In Vitro Evaluation of Antipseudomonal Activity and Safety Profile of Peptidomimetic Furin Inhibitors” (Biomedicines, 2024).

What was measured:
[1] = test system: primary human hepatocytes (PHH); design: method as in PMID 35594709; conditions: PHHs; cited from earlier work
[2] = test system: primary human hepatocytes (PHH); design: method as in PMID 35594709; conditions: 100 µM; cited from earlier work
[3] = test system: human airway Calu-3 cells; conditions: cited from earlier work
[4] = test system: primary human hepatocytes (PHH); experiment: DCFH-DA intracellular ROS assay in primary human hepatocytes; format: cell-based; conditions: 50 µM and 100 µM, 24 h
Protocol: (§1) PHHs were purchased from Primacyt Cell Culture Technology GmbH (Schwerin, Germany). Hepatocytes were thawed using hepatocyte recovery medium (Primacyt, Schwerin, Germany) and cells were centrifuged (10 min, 100× g, 20 °C) to remove supernatants. Cells were incubated with 5% FBS-containing plating medium for 6 h, then with FBS-free maintenance medium at 37 °C with 5% CO2 (both media were obtained from Primacyt, Schwerin, Germany) on Matrigel-coated membrane inserts (Costar Transwell-COL PTFE permeable supports, 6.5 mm inserts, 0.4 µm pore size, 24-well plate, Corning Incorporated, Kennebunk, ME, USA) for the CCK-8 and Amplex Red procedures. Maintenance medium without FBS was replaced every 24 h and the cells were incubated.
The ability of inhibitors MI-1851 and MI-2415 to induce oxidative stress (ROS) within IPEC-J2 as well as of compound MI-2415 within PHHs was investigated with 2,7-dichloro-dihydro-fluorescein diacetate (DCFH2-DA). DCFH2-DA is a non-fluorescent compound that can passively diffuse across cell membranes due to its lipophilic nature. […] A Victor X2 2030 (Perkin Elmer, Waltham, MA, USA) was used to determine the fluorescence values of the samples (excitation wavelength: 485 nm, emission wavelength: 535 nm), which are directly proportional to the ROS generation.

[5] = target: T1, Human serum albumin (HSA) (Homo sapiens, UniProt P02768); experiment: fluorescence quenching of human serum albumin; format: binding; conditions: HSA 2 μM, ligand 1-10 μM, PBS pH 7.4, λex 295 nm
T1 construct: purchased Merck (Darmstadt, Germany) A1653
T1 sequence (P02768 25-609): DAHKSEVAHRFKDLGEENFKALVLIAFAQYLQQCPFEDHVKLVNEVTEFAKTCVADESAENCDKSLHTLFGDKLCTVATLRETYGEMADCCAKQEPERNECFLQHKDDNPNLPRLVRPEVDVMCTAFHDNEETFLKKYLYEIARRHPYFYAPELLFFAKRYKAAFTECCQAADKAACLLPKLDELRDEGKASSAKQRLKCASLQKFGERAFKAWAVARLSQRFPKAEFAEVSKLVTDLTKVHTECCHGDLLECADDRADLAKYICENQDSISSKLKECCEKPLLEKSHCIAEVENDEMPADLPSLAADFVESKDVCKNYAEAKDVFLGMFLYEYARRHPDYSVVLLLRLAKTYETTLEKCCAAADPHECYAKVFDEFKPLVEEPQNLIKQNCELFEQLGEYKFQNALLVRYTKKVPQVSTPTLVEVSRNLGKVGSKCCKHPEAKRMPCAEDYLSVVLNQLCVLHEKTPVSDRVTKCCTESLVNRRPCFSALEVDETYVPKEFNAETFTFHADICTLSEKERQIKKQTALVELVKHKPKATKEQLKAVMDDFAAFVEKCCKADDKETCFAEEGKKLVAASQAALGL
Protocol: Human serum albumin (HSA) (product code: A1653) and α1-acid glycoprotein (AGP) (product code: G9885) were purchased from Merck (Darmstadt, Germany) and used as received. Fluorescence emission spectra were recorded using a Hitachi F-4500 fluorometer (Tokyo, Japan), while absorption spectra were collected by employing a Hitachi U-3900 UV–Vis spectrophotometer (Tokyo, Japan). Before the evaluation of fluorescence data, the inner-filter effects of MI-1851 and MI-2415 were corrected based on the following equation [23, 24]:(1) Icor=Iobs×e^(Aex+Aem)/2 where Icor and Iobs are the corrected and observed emission intensities, respectively; and Aex and Aem are the absorbance of the MI compounds tested at the excitation and emission wavelengths used, respectively.
To examine the potential interaction of inhibitor MI-2415 with HSA, increasing levels of the ligand (final concentrations: 0, 1, 2, 3, 4, 7, and 10 μM) were added to a standard amount of the protein (2 μM) in PBS (pH 7.4), and then the emission spectra were recorded (λex = 295 nm, λem = 340 nm). Furthermore, the quenching effects of inhibitors MI-1851 and MI-2415 (both 0, 0.25, 0.5, 1, 1.5, 2, and 2.5 μM) were also tested on the emission signal of AGP (2 μM) in PBS (λex = 285 nm, λem = 337 nm).

[6] = test system: primary human hepatocytes (PHH); experiment: Amplex Red extracellular H2O2 assay in primary human hepatocytes; format: cell-based; conditions: 50 µM and 100 µM, 24 h
Protocol: as §1
To evaluate the cellular responses of IPEC-J2 to the inhibitors MI-1851 and MI-2415, and those of PHHs to MI-2415, at different concentration levels, the Amplex Red hydrogen peroxide assay kit (Invitrogen, Molecular Probes, Budapest, Hungary) in combination with horseradish peroxidase has been used. In the presence of hydrogen peroxide (in 1:1 stoichiometry), Amplex Red produces a red fluorescent oxidation product, resorufin. The IPEC-J2 cells and PHHs were treated for 24 h with the inhibitor(s) at different concentration levels (50 and 100 μM). […]

[7] = test system: primary human hepatocytes (PHH); experiment: CCK-8 cytotoxicity assay in primary human hepatocytes; format: cell-based; conditions: 50 µM and 100 µM, 24 h
Protocol: as §1
The possible cytotoxic effects of the inhibitors MI-1851 and MI-2415 (structures provided in Figure 1) in different concentrations on IPEC-J2 and those of inhibitor MI-2415 on PHHs were assessed for 24 h by performing the CCK-8 assay (Dojindo Molecular Technologies, Rockville, MD, USA). […] Following three times washing of the wells with PBS, 10 µL CCK-8 reagent mixed with 100 µL fresh Williams’ Medium E was added and the absorbance values were measured at 450 nm using the SpectraMax iD3 microplate reader (Molecular Devices, San José, CA, USA) after 2 h incubation. […]

SMILES | non-cytotoxic concentration [1] | extracellular hydrogen peroxide production in PHHs [2] | non-cytotoxic concentration [3] | intracellular ROS formation in PHHs [4] | effect on emission intensity of HSA at 340 nm [5] | extracellular H2O2 production in PHHs [6] | cell death in PHHs [7]
CC(C)(C)[C@H](NC(=O)[C@H](CCONC(=N)N)NC(=O)Cc1ccc(CNC(=N)N)cc1)C(=O)N[C@@H](CCONC(=N)N)C(=O)NCc1ccc(C(=N)N)cc1 [MI-1851] | up to 100 µM | lacking any significant effect | up to 50 µM |  |  |  | 
CC(C)(C)[C@H](NC(=O)[C@H](CCONC(=N)N)NC(=O)Cc1ccc(CNC(=N)N)cc1)C(=O)N[C@@H](CCONC(=N)N)C(=O)NCc1ccc2c(c1)CN=C2N [MI-2415] |  |  |  | did not cause a redox imbalance | did not influence the emission intensity of HSA | did not cause a redox imbalance | did not lead to significant cell death
